Test results published in ChEMBL document CHEMBL1687748 (Antimicrob Agents Chemother, 2009).
≈ marks a conversion by molar mass, not a printed value.

Assays:
Type in all cases: functional
Bacillus anthracis [1] = assay: Hill constant for compound-sensitive toxin and capsule gene-deficient Bacillus anthracis Sterne in hollow-fiber pharmacodynamic infection model administered for every 24 hrs
Bacillus anthracis [2] = assay: Hill constant for compound-sensitive toxin and capsule gene-deficient Bacillus anthracis Sterne in hollow-fiber pharmacodynamic infection model at 250 mg administered as continuous infusion by Bayesian method
Bacillus anthracis [3] = assay: Total sensitive organism counts of toxin and capsule gene-deficient Bacillus anthracis Sterne in hollow-fiber pharmacodynamic infection model at 150 mg administered as continuous infusion by Bayesian method
Bacillus anthracis [4] = assay: Growth rate constant of vegetative-phase cells going to spore phase in toxin and capsule gene-deficient Bacillus anthracis Sterne in hollow-fiber pharmacodynamic infection model administered as continuous infusion
Bacillus anthracis [5] = assay: Total spore counts of toxin and capsule gene-deficient Bacillus anthracis Sterne in hollow-fiber pharmacodynamic infection model at 100 mg, qd by Bayesian method
Bacillus anthracis [6] = assay: Growth rate constant of vegetative-phase cells going to spore phase in toxin and capsule gene-deficient Bacillus anthracis Sterne in hollow-fiber pharmacodynamic infection model at 50 mg, qd by Bayesian method
Bacillus anthracis [7] = assay: Growth rate constant for compound-sensitive toxin and capsule gene-deficient Bacillus anthracis Sterne in hollow-fiber pharmacodynamic infection model at 150 mg administered as continuous infusion by Bayesian method
Bacillus anthracis [8] = assay: Hill constant for compound-sensitive toxin and capsule gene-deficient Bacillus anthracis Sterne in hollow-fiber pharmacodynamic infection model at 50 mg, qd by Bayesian method
Bacillus anthracis [9] = assay: Hill constant for compound-sensitive toxin and capsule gene-deficient Bacillus anthracis Sterne in hollow-fiber pharmacodynamic infection model at 150 mg, qd by Bayesian method
Bacillus anthracis [10] = assay: Kill rate constant for compound-sensitive toxin and capsule gene-deficient Bacillus anthracis Sterne in hollow-fiber pharmacodynamic infection model administered as continuous infusion
Bacillus anthracis [11] = assay: Total sensitive organism counts of toxin and capsule gene-deficient Bacillus anthracis Sterne in hollow-fiber pharmacodynamic infection model administered as continuous infusion
Bacillus anthracis [12] = assay: Growth rate constant of vegetative-phase cells going to spore phase in toxin and capsule gene-deficient Bacillus anthracis Sterne in hollow-fiber pharmacodynamic infection model at 250 mg administered as continuous infusion by Bayesian method
Bacillus anthracis [13] = assay: Total spore counts of toxin and capsule gene-deficient Bacillus anthracis Sterne in hollow-fiber pharmacodynamic infection model administered for every 24 hrs
Bacillus anthracis [14] = assay: Growth rate constant of vegetative-phase cells going to spore phase in toxin and capsule gene-deficient Bacillus anthracis Sterne in hollow-fiber pharmacodynamic infection model at 200 mg administered as continuous infusion by Bayesian method
Bacillus anthracis [15] = assay: Total sensitive organism counts of toxin and capsule gene-deficient Bacillus anthracis Sterne in hollow-fiber pharmacodynamic infection model administered for every 24 hrs
Bacillus anthracis [16] = assay: Growth rate constant for compound-sensitive toxin and capsule gene-deficient Bacillus anthracis Sterne in hollow-fiber pharmacodynamic infection model at 250 mg administered as continuous infusion by Bayesian method
Bacillus anthracis [17] = assay: Antimicrobial activity against toxin and capsule gene-deficient Bacillus anthracis Sterne after 24 hrs by […] method
Bacillus anthracis [18] = assay: Total sensitive organism counts of toxin and capsule gene-deficient Bacillus anthracis Sterne in hollow-fiber pharmacodynamic infection model at 200 mg administered as continuous infusion by Bayesian method
Bacillus anthracis [19] = assay: Growth rate constant of spore-phase cells going to vegetative phase in toxin and capsule gene-deficient Bacillus anthracis Sterne in hollow-fiber pharmacodynamic infection model at 250 mg, qd by Bayesian method
Bacillus anthracis [20] = assay: Growth rate constant of vegetative-phase cells going to spore phase in toxin and capsule gene-deficient Bacillus anthracis Sterne in hollow-fiber pharmacodynamic infection model administered for every 24 hrs
Bacillus anthracis [21] = assay: Growth rate constant of spore-phase cells going to vegetative phase in toxin and capsule gene-deficient Bacillus anthracis Sterne in hollow-fiber pharmacodynamic infection model at 200 mg administered as continuous infusion by Bayesian method
Bacillus anthracis [22] = assay: Growth rate constant of vegetative-phase cells going to spore phase in toxin and capsule gene-deficient Bacillus anthracis Sterne in hollow-fiber pharmacodynamic infection model at 100 mg administered as continuous infusion by Bayesian method
Bacillus anthracis [23] = assay: Total sensitive organism counts of toxin and capsule gene-deficient Bacillus anthracis Sterne in hollow-fiber pharmacodynamic infection model at 250 mg, qd by Bayesian method
Bacillus anthracis [24] = assay: Growth rate constant for compound-sensitive toxin and capsule gene-deficient Bacillus anthracis Sterne in hollow-fiber pharmacodynamic infection model at 50 mg, qd by Bayesian method
Bacillus anthracis [25] = assay: Hill constant for compound-sensitive toxin and capsule gene-deficient Bacillus anthracis Sterne in hollow-fiber pharmacodynamic infection model at 100 mg administered as continuous infusion by Bayesian method
Bacillus anthracis [26] = assay: Kill rate constant for compound-sensitive toxin and capsule gene-deficient Bacillus anthracis Sterne in hollow-fiber pharmacodynamic infection model at 100 mg, qd by Bayesian method
Bacillus anthracis [27] = assay: Antimicrobial activity against toxin and capsule gene-deficient Bacillus anthracis Sterne after 24 hrs by macrobroth dilution method
Bacillus anthracis [28] = assay: Growth rate constant of spore-phase cells going to vegetative phase in toxin and capsule gene-deficient Bacillus anthracis Sterne in hollow-fiber pharmacodynamic infection model at 100 mg administered as continuous infusion by Bayesian method
Bacillus anthracis [29] = assay: Growth rate constant of spore-phase cells going to vegetative phase in toxin and capsule gene-deficient Bacillus anthracis Sterne in hollow-fiber pharmacodynamic infection model at 200 mg, qd by Bayesian method
Bacillus anthracis [30] = assay: Kill rate constant for compound-sensitive toxin and capsule gene-deficient Bacillus anthracis Sterne in hollow-fiber pharmacodynamic infection model at 150 mg administered as continuous infusion by Bayesian method
Bacillus anthracis [31] = assay: Kill rate constant for compound-sensitive toxin and capsule gene-deficient Bacillus anthracis Sterne in hollow-fiber pharmacodynamic infection model at 200 mg administered as continuous infusion by Bayesian method
Bacillus anthracis [32] = assay: Total spore counts of toxin and capsule gene-deficient Bacillus anthracis Sterne in hollow-fiber pharmacodynamic infection model at 200 mg administered as continuous infusion by Bayesian method
Bacillus anthracis [33] = assay: Hill constant for compound-sensitive toxin and capsule gene-deficient Bacillus anthracis Sterne in hollow-fiber pharmacodynamic infection model at 200 mg, qd by Bayesian method
Bacillus anthracis [34] = assay: Kill rate constant for compound-sensitive toxin and capsule gene-deficient Bacillus anthracis Sterne in hollow-fiber pharmacodynamic infection model at 100 mg administered as continuous infusion by Bayesian method
Bacillus anthracis [35] = assay: Total spore counts of toxin and capsule gene-deficient Bacillus anthracis Sterne in hollow-fiber pharmacodynamic infection model at 150 mg administered as continuous infusion by Bayesian method
Bacillus anthracis [36] = assay: Hill constant for compound-sensitive toxin and capsule gene-deficient Bacillus anthracis Sterne in hollow-fiber pharmacodynamic infection model administered as continuous infusion
Bacillus anthracis [37] = assay: Growth rate constant of spore-phase cells going to vegetative phase in toxin and capsule gene-deficient Bacillus anthracis Sterne in hollow-fiber pharmacodynamic infection model administered for every 24 hrs

COc1c(N2C[C@@H]3CCCN[C@@H]3C2)c(F)cc2c(=O)c(C(=O)O)cn(C3CC3)c12 [MOXIFLOXACIN]
Activity (Bacillus anthracis [1]): 29.8 h⁻¹
Activity (Bacillus anthracis [2]): 30 h⁻¹
CFU/ml (Bacillus anthracis [3]): 23500000
Activity (Bacillus anthracis [4]): 1.2 h⁻¹
CFU/ml (Bacillus anthracis [5]): 1900000
Activity (Bacillus anthracis [6]): 0.0657 h⁻¹
Activity (Bacillus anthracis [7]): 8.25 h⁻¹
Activity (Bacillus anthracis [8]): 5.84 h⁻¹
Activity (Bacillus anthracis [9]): 30 h⁻¹
Activity (Bacillus anthracis [10]): 6.41 h⁻¹
CFU/ml (Bacillus anthracis [11]): 38500000
Activity (Bacillus anthracis [12]): 5.18 h⁻¹
CFU/ml (Bacillus anthracis [13]): 1740000
Activity (Bacillus anthracis [14]): 5.3 h⁻¹
CFU/ml (Bacillus anthracis [15]): 41200000
Activity (Bacillus anthracis [16]): 8.25 h⁻¹
MBC (Bacillus anthracis [17]): 1 µg/mL (≈ 2.49 µM)
CFU/ml (Bacillus anthracis [18]): 20600000
Activity (Bacillus anthracis [19]): 1.04 h⁻¹
Activity (Bacillus anthracis [20]): 4.96 h⁻¹
Activity (Bacillus anthracis [21]): 6.65 h⁻¹
Activity (Bacillus anthracis [22]): 1.17 h⁻¹
CFU/ml (Bacillus anthracis [23]): 36000000
Activity (Bacillus anthracis [24]): 5.14 h⁻¹
Activity (Bacillus anthracis [25]): 20.9 h⁻¹
Activity (Bacillus anthracis [26]): 7.48 h⁻¹
MIC (Bacillus anthracis [27]): 0.06 µg/mL (≈ 0.149 µM)
Activity (Bacillus anthracis [28]): 10.1 h⁻¹
Activity (Bacillus anthracis [29]): 1.01 h⁻¹
Activity (Bacillus anthracis [30]): 8.28 h⁻¹
Activity (Bacillus anthracis [31]): 8.28 h⁻¹
CFU/ml (Bacillus anthracis [32]): 1870000
Activity (Bacillus anthracis [33]): 1 h⁻¹
Activity (Bacillus anthracis [34]): 8.28 h⁻¹
CFU/ml (Bacillus anthracis [35]): 1880000
Activity (Bacillus anthracis [36]): 5.93 h⁻¹
Activity (Bacillus anthracis [37]): 7.31 h⁻¹
